How the values were obtained:
Settings in all cases: 72 h
Caco-2 [1] = assay: cell viability relative to DMSO; higher = less toxic
HepG2 [2] = assay: as above
U2OS [3] = assay: as above
Vero E6 [4] = assay: as above
Caco-2 [5] = assay: relative viability EC50 (midpoint between 100% and the lowest measured viability); higher = less toxic
HepG2 [6] = assay: as above
U2OS [7] = assay: as above
Vero E6 [8] = assay: as above
Caco-2 [9] = assay: drug sensitivity score (DSS) for viability; higher = more toxic; extreme values may be limits of the assay
HepG2 [10] = assay: as above
U2OS [11] = assay: as above
Vero E6 [12] = assay: as above
Calu-3 [13] = assay: cell viability relative to DMSO; higher = less toxic
Calu-3 [14] = assay: relative viability EC50 (midpoint between 100% and the lowest measured viability); higher = less toxic
Calu-3 [15] = assay: drug sensitivity score (DSS) for viability; higher = more toxic; extreme values may be limits of the assay

Row | Compound | cell viability (Caco-2 [1]; 1 nM) | cell viability (Caco-2 [1]; 10 nM) | cell viability (Caco-2 [1]; 100 nM) | cell viability (Caco-2 [1]; 1000 nM) | cell viability (Caco-2 [1]; 10000 nM) | cell viability (HepG2 [2]; 1 nM) | cell viability (HepG2 [2]; 10 nM) | cell viability (HepG2 [2]; 100 nM) | cell viability (HepG2 [2]; 1000 nM) | cell viability (HepG2 [2]; 10000 nM) | cell viability (U2OS [3]; 1 nM) | cell viability (U2OS [3]; 10 nM) | cell viability (U2OS [3]; 100 nM) | cell viability (U2OS [3]; 1000 nM) | cell viability (U2OS [3]; 10000 nM) | cell viability (Vero E6 [4]; 1 nM) | cell viability (Vero E6 [4]; 10 nM) | cell viability (Vero E6 [4]; 100 nM) | cell viability (Vero E6 [4]; 1000 nM) | cell viability (Vero E6 [4]; 10000 nM) | relative viability EC50 (Caco-2 [5]) | relative viability EC50 (HepG2 [6]) | relative viability EC50 (U2OS [7]) | relative viability EC50 (Vero E6 [8]) | drug sensitivity score (Caco-2 [9]) | drug sensitivity score (HepG2 [10]) | drug sensitivity score (U2OS [11]) | drug sensitivity score (Vero E6 [12]) | cell viability (Calu-3 [13]; 1 nM) | cell viability (Calu-3 [13]; 10 nM) | cell viability (Calu-3 [13]; 100 nM) | cell viability (Calu-3 [13]; 1000 nM) | cell viability (Calu-3 [13]; 10000 nM) | relative viability EC50 (Calu-3 [14]) | drug sensitivity score (Calu-3 [15])
1 | O=C1c2cc(Cl)ccc2OC2CCON12 (configuration not stated) [seclazone] | 108% | 86.3% | 91% | 97.4% | 99.2% | 102% | 108% | 94.8% | 97.8% | 107% | 106% | 96.7% | 101% | 105% | 100% | 90% | 98.2% | 92.7% | 95.2% | 102% | > 10 µM | > 10 µM | > 10 µM | > 10 µM | 0 | 0 | 0 | 0 | – | – | – | – | – | – | –
2 | O=C(/C=C/c1ccccc1)NCCO [brolitene] | 102% | 103% | 95% | 93.5% | 95% | 107% | 104% | 99.3% | 98% | 102% | 107% | 109% | 102% | 104% | 99.2% | 104% | 103% | 99.4% | 104% | 100% | > 10 µM | > 10 µM | > 10 µM | > 10 µM | 0 | 0 | 0 | 0 | – | – | – | – | – | – | –
3 | CNC(=O)c1c(I)c(NC(C)=O)c(I)c(C(=O)O)c1I [iothalamic-acid-d3] | 91.8% | 91.5% | 87.6% | 94.5% | 102% | 107% | 101% | 107% | 94.9% | 100% | 99.6% | 109% | 104% | 106% | 103% | – | – | – | – | – | > 10 µM | > 10 µM | > 10 µM | – | 0 | 0 | 0 | – | 94.6% | 99% | 80.3% | 102% | 85.2% | > 10 µM | 0.1
4 | CC(C)Nc1nc2cc(Cl)c(Cl)cc2n1[C@H]1O[C@@H](CO)[C@H](O)[C@@H]1O [maribavir] | 96.9% | 98.9% | 97.3% | 99.5% | 91% | 106% | 104% | 110% | 107% | 97.9% | 97.7% | 101% | 92.1% | 102% | 93.7% | – | – | – | – | – | > 10 µM | > 10 µM | > 10 µM | – | 0 | 0 | 0 | – | 96.4% | 112% | 106% | 101% | 102% | > 10 µM | 0

From the supplement of paper PMC13380429
